In one experiment the test system is ASPC1. The experiment is described as follows: Cytotoxicity against human AsPC1 cells assessed as cell viability 10 uM after 72 hrs by cell counting analysis relative to control. It counts as functional.
In another experiment the test system is U-118-MG. Nature of the experiment: Antiproliferative activity against human U118MG cells assessed as inhibition of cell growth at 100 uM after 72 hrs by WST1 assay. It counts as functional, cell-based. For orientation: Formazan colour is commonly taken as a measure of viable cells.
The target of experiment [1] is RAC-alpha serine/threonine-protein kinase (Homo sapiens) (UniProt P31749). Nature of the experiment: Inhibition of recombinant Akt1 (unknown origin) incubated for 1 hr by Z'Lyte assay.
Experiment [2] addresses T1, 3-phosphoinositide-dependent protein kinase 1 (Homo sapiens, UniProt O15530).
T1 sequence (O15530 whole entry): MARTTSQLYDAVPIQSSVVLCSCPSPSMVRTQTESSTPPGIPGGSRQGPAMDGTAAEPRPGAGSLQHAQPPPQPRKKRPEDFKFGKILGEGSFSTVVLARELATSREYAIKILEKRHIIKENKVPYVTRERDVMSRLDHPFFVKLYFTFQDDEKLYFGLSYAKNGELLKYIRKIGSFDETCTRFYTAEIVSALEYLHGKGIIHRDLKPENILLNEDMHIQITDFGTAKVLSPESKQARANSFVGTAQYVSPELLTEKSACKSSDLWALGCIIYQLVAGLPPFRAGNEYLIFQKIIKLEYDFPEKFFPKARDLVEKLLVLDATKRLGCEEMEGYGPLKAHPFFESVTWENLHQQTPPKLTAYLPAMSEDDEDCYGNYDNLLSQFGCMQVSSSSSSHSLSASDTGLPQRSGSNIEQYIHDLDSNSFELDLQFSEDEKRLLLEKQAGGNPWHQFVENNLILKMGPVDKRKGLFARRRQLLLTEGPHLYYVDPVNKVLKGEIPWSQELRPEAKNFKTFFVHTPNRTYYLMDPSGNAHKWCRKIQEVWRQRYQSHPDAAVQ
Nature of the experiment: Inhibition of PDK1 (unknown origin) incubated for 1 hr by Z'Lyte assay.

The structures appear in SMILES notation. Calls of active or inactive are those of the source. The calls are words filed in the database; no cut-off is given here.

Sequence of RAC-alpha serine/threonine-protein kinase (Homo sapiens) (P31749 whole entry): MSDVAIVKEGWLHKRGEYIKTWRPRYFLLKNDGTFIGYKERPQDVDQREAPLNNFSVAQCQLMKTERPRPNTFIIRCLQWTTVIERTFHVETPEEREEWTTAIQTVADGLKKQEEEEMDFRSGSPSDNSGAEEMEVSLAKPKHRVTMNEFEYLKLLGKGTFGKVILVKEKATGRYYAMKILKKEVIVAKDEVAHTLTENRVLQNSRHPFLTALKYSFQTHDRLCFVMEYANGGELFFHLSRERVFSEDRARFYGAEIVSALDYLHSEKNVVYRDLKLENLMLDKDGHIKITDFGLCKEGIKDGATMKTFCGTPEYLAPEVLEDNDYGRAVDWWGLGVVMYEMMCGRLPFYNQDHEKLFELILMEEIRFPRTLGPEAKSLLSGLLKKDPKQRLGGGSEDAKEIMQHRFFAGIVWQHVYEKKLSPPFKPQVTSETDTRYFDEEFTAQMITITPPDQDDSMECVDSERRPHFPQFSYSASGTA

`COc1ccc(CNCC(=O)Nc2ccc3c(c2)/C(=C/c2cccs2)C(=O)N3)cc1OC`: in the experiment on ASPC1, the Activity came to 86.75%.

With `CSc1ccc(NC(=O)Nc2ccc3c(c2)/C(=C\c2nccn2C)C(=O)N3)cc1`, the Activity in the experiment with ASPC1 worked out at 95.13%.

Regarding `CSc1ccc(NC(=O)Nc2ccc3c(c2)/C(=C/c2cccs2)C(=O)N3)cc1`, the Activity with ASPC1 amounted to 77.29%. `CS(=O)(=O)c1ccc(NC(=O)Nc2ccc3c(c2)/C(=C/c2cccs2)C(=O)N3)cc1`: the Activity with ASPC1 came out at 93.88%. With `Cn1nnc2c(C(N)=O)ncn2c1=O`, the “growth inhibition (GI)” value with U-118-MG was “inactive”. `COc1ccc(CNS(=O)(=O)c2ccc3c(c2)/C(=C\c2nccn2C)C(=O)N3)cc1OC`: the Activity in the experiment with ASPC1 turned out to be 84.5%. Still for that read-out and setting: as for `COc1ccc(CNS(=O)(=O)c2ccc3c(c2)/C(=C/c2cccs2)C(=O)N3)cc1OC`, the figure is 84.18%. For the compound `CSc1ccc(NC(=O)Nc2ccc3c(c2)/C(=C/c2cnc[nH]2)C(=O)N3)cc1`, the Activity with ASPC1 is 82.94%.

For the compound `CS(=O)(=O)Nc1ccc2c(c1)/C(=C/c1cccs1)C(=O)N2`, the inhibition entry in experiment [1] was “inactive”. Further, the IC50 in experiment [2] was determined as 6.81 µM. The Activity with ASPC1 is recorded as 68.06%. Turning to `Cn1ccnc1/C=C1/C(=O)Nc2ccc(NS(C)(=O)=O)cc21`, the Activity with ASPC1 is given as 96.23%.

As to `CS(=O)(=O)Nc1ccc2c(c1)/C(=C/c1cnc[nH]1)C(=O)N2`, the inhibition entry in experiment [1] was “inactive”. In experiment [2], this compound displayed a half-maximal inhibitory concentration (IC50) of 0.31 µM. The Activity in the experiment with ASPC1 came to 73.83%.

As for `Cn1ccnc1/C=C1/C(=O)Nc2ccc(NC(=O)Nc3ccc(S(C)(=O)=O)cc3)cc21`, in the experiment with ASPC1, the Activity is on record as 90.57%. Still for that read-out and setting: as for `COc1cc2c(cc1OC)CN(CC(=O)Nc1ccc3c(c1)/C(=C/c1cccs1)C(=O)N3)CC2`, the figure is 82.04%; as for `COc1cc2c(cc1OC)CN(CC(=O)Nc1ccc3c(c1)/C(=C\c1nccn1C)C(=O)N3)CC2`, 82.34%; as for `CS(=O)(=O)c1ccc(NC(=O)Nc2ccc3c(c2)/C(=C/c2cnc[nH]2)C(=O)N3)cc1`, 82.21%.

The term IC50 denotes the point on the concentration scale where inhibition reaches its midpoint. A lower IC50 goes with higher potency.

(Values after ChEMBL document CHEMBL3734692, “Design and synthesis of 2-oxindole based multi-targeted inhibitors of PDK1/Akt signaling pathway for the treatment of glioblastoma multiforme” (Eur J Med Chem, 2015).)
